Test results reported in ChEMBL document CHEMBL1152582, “Discovery of trans-N-[1-(2-fluorophenyl)-3-pyrazolyl]-3-oxospiro[6-azaisobenzofuran-1(3H),1'-cyclohexane]-4'-carboxamide, a potent and orally active neuropeptide Y Y5 receptor antagonist” (Bioorg Med Chem, 2009).
The source made the active and inactive calls. The rule behind the calls is not given here.

Legend:
[1] = target: T1, Neuropeptide Y receptor type 5 (Homo sapiens, UniProt Q15761)
T1 sequence (Q15761 whole entry): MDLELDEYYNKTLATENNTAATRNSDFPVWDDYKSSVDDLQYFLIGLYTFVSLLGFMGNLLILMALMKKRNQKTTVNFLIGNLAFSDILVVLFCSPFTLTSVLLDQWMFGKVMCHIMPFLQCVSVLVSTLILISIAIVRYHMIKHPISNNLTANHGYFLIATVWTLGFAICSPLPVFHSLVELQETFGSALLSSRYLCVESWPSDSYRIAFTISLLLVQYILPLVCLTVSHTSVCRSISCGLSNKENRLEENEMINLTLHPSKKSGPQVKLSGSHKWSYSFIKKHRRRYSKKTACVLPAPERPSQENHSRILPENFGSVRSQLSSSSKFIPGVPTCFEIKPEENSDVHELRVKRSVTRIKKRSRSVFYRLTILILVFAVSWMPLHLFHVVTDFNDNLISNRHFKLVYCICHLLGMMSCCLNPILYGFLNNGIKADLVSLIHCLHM
Description: Displacement of [125I]PYY from human recombinant Y5 receptor

[2] = in vivo; conditions: rat, plasma, po, 10 mg/kg
Description: Plasma concentration in rat at 10 mg/kg, po after 2 hrs

[3] = in vitro; conditions: rat, hepatocytes
Description: Clearance in rat hepatocytes

[4] = in vivo; conditions: rat, CSF, po, 10 mg/kg
Description: Drug level in rat CSF at 10 mg/kg, po after 2 hrs

[5] = physchem; conditions: buffer, pH 7.4
Description: Lipophilicity, log D at pH 7.4

[6] = system: Brain; conditions: rat, in vivo, po, 10 mg/kg, 2 h
Description: Drug level in rat brain at 10 mg/kg, po after 2 hrs

[7] = system: CYP3A; assay: Inhibition of CYP3A at 10 uM; assay type: ADME
[8] = in vivo; conditions: rat, CSF/plasma, po, 10 mg/kg
Description: Ratio of drug level in CSF to plasma in rat at 10 mg/kg, po after 2 hrs

[9] = target: T2, Neuropeptide Y receptor type 5 (Rattus norvegicus, UniProt Q63634)
T2 sequence (Q63634 whole entry): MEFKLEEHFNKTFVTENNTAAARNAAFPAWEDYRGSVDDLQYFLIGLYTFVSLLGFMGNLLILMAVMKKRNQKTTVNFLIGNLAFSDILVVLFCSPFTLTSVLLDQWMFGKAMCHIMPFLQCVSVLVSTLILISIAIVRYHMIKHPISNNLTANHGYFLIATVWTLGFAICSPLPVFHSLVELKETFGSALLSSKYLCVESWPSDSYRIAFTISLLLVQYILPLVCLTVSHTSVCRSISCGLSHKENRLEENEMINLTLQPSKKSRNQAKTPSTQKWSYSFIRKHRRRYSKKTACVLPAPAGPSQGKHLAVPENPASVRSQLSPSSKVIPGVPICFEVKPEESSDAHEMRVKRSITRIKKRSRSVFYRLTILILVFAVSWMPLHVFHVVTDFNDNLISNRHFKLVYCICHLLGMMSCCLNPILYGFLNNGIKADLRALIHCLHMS
Description: Inhibition of rat Y5 receptor

[10] = system: Rattus norvegicus; assay: Inhibition of [D-Trp34]NPY-induced food intake in Sprague-Dawley rat assessed as minimum effective dose treated po 2 hrs before [D-Trp34]NPY challenge; assay type: functional; conditions: read-out: MED
[11] = organism: Mus musculus; assay: Ex vivo Y5 receptor occupancy in mouse brain at plasma level of 100 to 200 ng/ml; assay type: functional, organism-based
[12] = system: Rattus norvegicus; assay: Inhibition of NPY-induced food intake in Sprague-Dawley rat at 10 mg/kg, po treated 2 hrs before [D-Trp34]NPY challenge; assay type: functional
[13] = system: Rattus norvegicus; assay: Inhibition of [D-Trp34]NPY-induced food intake in Sprague-Dawley rat at 10 mg/kg, po treated 2 hrs before [D-Trp34]NPY challenge; assay type: functional
[14] = system: Rattus norvegicus; assay: Inhibition of [D-Trp34]NPY-induced food intake in Sprague-Dawley rat at 3 mg/kg, po treated 2 hrs before [D-Trp34]NPY challenge; assay type: functional
[15] = system: Rattus norvegicus; assay: Inhibition of [D-Trp34]NPY-induced food intake in Sprague-Dawley rat at 1 mg/kg, po treated 2 hrs before [D-Trp34]NPY challenge; assay type: functional
[16] = organism: Mus musculus; assay: Ex vivo Y5 receptor occupancy in mouse brain at plasma level of 10 to 20 ng/ml; assay type: functional, organism-based
[17] = system: Rattus norvegicus; assay: Inhibition of [D-Trp34]NPY-induced food intake in Sprague-Dawley rat at 0.3 mg/kg, po treated 2 hrs before [D-Trp34]NPY challenge; assay type: functional
[18] = Ratio of drug level in brain to plasma in rat at 10 mg/kg, po after 2 hrs; assay type: ADME, organism-based; design: dose 10 mg/kg, route oral; conditions: read-out: BPR

| Structure (SMILES) | IC50 [1] | concentration at 2 h [2] | CLhep predicted [3] | concentration at 2 h [4] | logD [5] | Drug uptake [6] | further results |
| --- | --- | --- | --- | --- | --- | --- | --- |
| O=C1O[C@]2(CC[C@H](C(=O)Nc3cc(-c4ccccc4)[nH]n3)CC2)c2cnccc21 | 2.7 nM | 6100 nM | 3 mL/min/kg | 59 nM | 3.16 | 0.5 nmol/g | – |
| O=C1O[C@]2(CC[C@H](C(=O)Nc3cnc(-c4ccccc4)cn3)CC2)c2ccncc21 | 2.4 nM | – | 42 mL/min/kg | – | – | – | inhibition at 10 µM [7]: > 50% |
| O=C1O[C@]2(CC[C@H](C(=O)Nc3ccn(-c4cccc(F)c4)n3)CC2)c2cnccc21 | 2 nM | 1090 nM | 10 mL/min/kg | 77 nM | 3.4 | 1.36 nmol/g | – |
| O=C1O[C@]2(CC[C@H](C(=O)Nc3cnc(-c4ccccc4)cn3)CC2)c2cccnc21 | 4.2 nM | 3750 nM | 18 mL/min/kg | 174 nM | 3.1 | 2.5 nmol/g | – |
| O=C1O[C@]2(CC[C@H](C(=O)Nc3cnc(-c4ccccc4)cn3)CC2)c2ccccc21 | 1.5 nM | – | 35 mL/min/kg | – | > 4 | – | – |
| O=C1O[C@]2(CC[C@H](C(=O)Nc3cnn(-c4ccccc4)c3)CC2)c2cnccc21 | 2.2 nM | 1520 nM | < 1 mL/min/kg | 45 nM | – | 0.39 nmol/g | Kp at 2 h [8]: 0.115 |
| O=C1O[C@]2(CC[C@H](C(=O)Nc3ncc(-c4ccccc4)cn3)CC2)c2cccnc21 | – | – | 49 mL/min/kg | – | – | – | – |
| O=C1O[C@]2(CC[C@H](C(=O)Nc3cnn(-c4ccccc4)n3)CC2)c2cnccc21 | 0.89 nM | 680 nM | 21 mL/min/kg | 42 nM | 3.4 | 1.33 nmol/g | Kp at 2 h [8]: 0.032 |
| O=C1O[C@]2(CC[C@H](C(=O)Nc3cc(-c4ccccc4)on3)CC2)c2cnccc21 | 2.1 nM | 290 nM | 6 mL/min/kg | – | – | – | – |
| O=C1O[C@]2(CC[C@H](C(=O)Nc3cnc(-c4ccccc4)cn3)CC2)c2ncccc21 | 3.9 nM | – | 39 mL/min/kg | – | – | – | – |
| O=C1O[C@]2(CC[C@H](C(=O)Nc3ccc(-c4ccccc4)cn3)CC2)c2cnccc21 | 2.1 nM | 20 nM | 14 mL/min/kg | – | – | – | – |
| O=C1O[C@]2(CC[C@H](C(=O)Nc3ncc(-c4ccccc4)cn3)CC2)c2ccncc21 | – | – | 42 mL/min/kg | – | – | – | inhibition at 10 µM [7]: > 50% |
| O=C1O[C@]2(CC[C@H](C(=O)Nc3cnc(-c4ccccc4)cn3)CC2)c2cnccc21 | 2.2 nM | – | 36 mL/min/kg | – | 3.39 | – | – |
| O=C1O[C@]2(CC[C@H](C(=O)Nc3cc(-c4ccccc4)[nH]n3)CC2)c2cccnc21 | 5.4 nM | – | 2 mL/min/kg | – | – | – | – |
| O=C1O[C@]2(CC[C@H](C(=O)Nc3ncc(-c4ccccc4)cn3)CC2)c2cnccc21 | – | – | 39 mL/min/kg | – | – | – | – |
| O=C1OC2(CCC(C(=O)Nc3cnc(-c4ccccc4)cn3)CC2)c2ccccc21 (configuration not stated) | – | – | – | – | – | – | IC50 [9]: 2.5 nM; minimal effective dose [10]: > 10 mg/kg; Activity [11]: Active |
| O=C1O[C@]2(CC[C@H](C(=O)Nc3ccn(-c4ccc(F)cc4)n3)CC2)c2cnccc21 | 0.92 nM | 890 nM | 7 mL/min/kg | 81 nM | 3.2 | 1.24 nmol/g | IC50 [9]: 2.1 nM; minimal effective dose [10]: 1 mg/kg |
| O=C1O[C@]2(CC[C@H](C(=O)Nc3cc(-c4ccccc4)on3)CC2)c2ncccc21 | 2.4 nM | – | 36 mL/min/kg | – | 3.7 | – | – |
| O=C1O[C@]2(CC[C@H](C(=O)Nc3ccn(-c4ccccc4F)n3)CC2)c2cnccc21 [MK-0557] | – | 1590 nM | 9 mL/min/kg | 152 nM | 3.2 | 2.15 nmol/g | IC50 [9]: 2.1 nM; minimal effective dose [10]: 3 mg/kg; inhibition in vivo at 10 mg/kg [12]: 22%; inhibition in vivo at 10 mg/kg [13]: 83%; inhibition in vivo at 3 mg/kg [14]: 61%; inhibition in vivo at 1 mg/kg [15]: 43%; Activity [16]: Active; inhibition in vivo at 0.3 mg/kg [17]: 27% |
| O=C1O[C@]2(CC[C@H](C(=O)Nc3csc(-c4ccccc4)n3)CC2)c2cnccc21 | 1.2 nM | 190 nM | 12 mL/min/kg | – | – | – | – |
| O=C1O[C@]2(CC[C@H](C(=O)Nc3ncc(-c4ccccc4)cn3)CC2)c2ncccc21 | – | – | 49 mL/min/kg | – | – | – | – |
| O=C1O[C@]2(CC[C@H](C(=O)Nc3cc(-c4ccccc4)[nH]n3)CC2)c2ncccc21 | 26 nM | – | – | – | – | – | – |
| O=C1O[C@]2(CC[C@H](C(=O)Nc3ccn(-c4ccccc4)n3)CC2)c2cccnc21 | 4.4 nM | 6460 nM | 4 mL/min/kg | 416 nM | 2.8 | 2.79 nmol/g | Kp at 2 h [8]: 0.15; IC50 [9]: 1.7 nM; minimal effective dose [10]: 3 mg/kg |
| O=C1O[C@]2(CC[C@H](C(=O)Nc3ccn(-c4ccccc4)n3)CC2)c2cnccc21 | 2.3 nM | 2940 nM | 20 mL/min/kg | 276 nM | 3.1 | 3.13 nmol/g | Kp at 2 h [8]: 0.088; IC50 [9]: 2.2 nM; Kp at 2 h [18]: 1.06; minimal effective dose [10]: > 10 mg/kg |
| O=C1O[C@]2(CC[C@H](C(=O)Nc3cnn(-c4ccccc4)c3)CC2)c2cccnc21 | 1.3 nM | 6680 nM | 1 mL/min/kg | 91 nM | 2.9 | 0.5 nmol/g | Kp at 2 h [8]: 0.18; IC50 [9]: 4.7 nM; minimal effective dose [10]: 10 mg/kg |
| O=C1O[C@]2(CC[C@H](C(=O)Nc3cc(-c4ccccc4)n[nH]3)CC2)c2ccncc21 | 2.9 nM | – | 9 mL/min/kg | – | – | – | inhibition at 10 µM [7]: > 50% |
